Results from patent US20260373148A1, “5-FLUOROURACIL DERIVATIVE AND ANTI-TUMOR USE THEREOF” (SICHUAN UNIVERSITY, priority 2023, published 2026).
“Also recorded” adds a separate entry of the source.

Columns and labels:
[1] = test system: squamous cell carcinoma cells HN30, HN12, Cal-27, and HSC-3; experiment: Inhibitory effect of compounds on the proliferation of squamous cell carcinoma cells HN30, HN12, Cal-27, HSC-3 (CCK-8 assay); assay type: cell-based; details: in words, 48 hours; for inhibitory effect on the proliferation of tumor cells: HN30, HN12, Cal-27, HSC-3, 0, 1.25, 2.5, 5, 10 μM
Experimental: (§1) Squamous cell carcinoma cell lines: HN30, HN12, Cal-27, HSC-3.
(§2) Test compounds: Compounds 3a, 3b, 3c; Compound 1 (i.e., 5-fluorouracil).
(§3) The experimental procedure was as follows: All four tumor cell lines were cultured in a standardized incubator at 37 °C with 5% CO2. Cells in logarithmic growth phase were digested, counted, and seeded onto 96-well plates at 3000 cells/well. They were then cultured overnight in the incubator. The test compounds were prepared into a stock solution with DMSO at a concentration of 10 mM, and were diluted sequentially (0, 1.25, 2.5, 5, 10 μM) before treating the cells. The control group was treated with the highest concentration of DMSO. The cells were cultured for additional 48 hours in the incubator, and the effect of each compound on the proliferation of the four tumor cell lines was assessed using CCK-8 assay. Meanwhile, the experimental results of compound 3a and compound 1 were analyzed to obtain their IC50 values, and the effects of both compounds on tumor cell proliferation were compared.

[2] = test system: HN30 cells; experiment: Inhibition of proliferation of HN30 squamous cell carcinoma cells (CCK-8 assay); assay type: cell-based; details: 48 hours, 0, 1.25, 2.5, 5, 10 μM, read-out: IC50 values against HN30 cells
Experimental: as §1, §2, §3

[3] = test system: Cal27 cells; experiment: Inhibition of proliferation of Cal27 squamous cell carcinoma cells (CCK-8 assay); assay type: cell-based; details: Homo sapiens, CAL-27, 48 hours, 0, 1.25, 2.5, 5, 10 μM, read-out: IC50 values against Cal27 cells
Experimental: as §1, §2, §3

[4] = test system: OSCC cells; details: in words; Heilongjiang Medicine and Pharmacy, February 2009; cited from earlier work

IC50 [2] [µM] | IC50 [3] [µM] | SMILES | inhibitory effect on the proliferation of tumor cells [1] | induction of apoptosis in OSCC cells [4] | IC50 value compared with compound 1 ([1]; compound 3a versus compound 1, FIGS. 2 and 3 (HN30 and Cal27))
21.7 | 22.8 | O=c1[nH]cc(F)c(=O)[nH]1 [Compound 1, 5-fluorouracil] | higher anti-tumor activity in a higher concentration range | can induce apoptosis in OSCC cells | –
– | – | O=C(CCn1cc(F)c(=O)[nH]c1=O)Nc1ccc(C23CC4CC(CC(C4)C2)C3)cc1 [Compound 3b] | did not show significant improvement | – | –
7.09 | 6.54 | O=C(CCn1cc(F)c(=O)n(CCC(=O)Nc2ccc(C34CC5CC(CC(C5)C3)C4)cc2)c1=O)Nc1ccc(C23CC4CC(CC(C4)C2)C3)cc1 [Compound 3a] | significantly better inhibitory effect than 5-fluorouracil; also recorded: significantly higher than that of compounds 1, 3b, and 3c; also recorded: significantly better than that of 5-fluorouracil | – | significantly lower than that of compound 1
– | – | O=C(CCn1c(=O)[nH]cc(F)c1=O)Nc1ccc(C23CC4CC(CC(C4)C2)C3)cc1 [Compound 3c] | did not show significant improvement | – | –
